Assay results published in patent US9790235B2, “MK2 inhibitors and uses thereof” (Celgene CAR LLC, priority 2014, dated 2017).
Read-outs that look alike come from different tables or passages of the source.

Key:
[1] = target: p38α activated, mitogen-activated protein kinase-activated protein kinase 2 (MAPKAP-K2 or MK2) enzyme (Homo sapiens (Human), UniProt P49137); assay: MK2 Omnia continuous-read kinase assay for compound potency; format: biochemical; conditions: [MK-2]=0.4 nM, [ATP]=10 μM, [ST3-Sox]=10 μM; read-out: MK2 IC50
p38α activated, mitogen-activated protein kinase-activated protein kinase 2 (MAPKAP-K2 or MK2) enzyme, sequence (P49137 whole entry): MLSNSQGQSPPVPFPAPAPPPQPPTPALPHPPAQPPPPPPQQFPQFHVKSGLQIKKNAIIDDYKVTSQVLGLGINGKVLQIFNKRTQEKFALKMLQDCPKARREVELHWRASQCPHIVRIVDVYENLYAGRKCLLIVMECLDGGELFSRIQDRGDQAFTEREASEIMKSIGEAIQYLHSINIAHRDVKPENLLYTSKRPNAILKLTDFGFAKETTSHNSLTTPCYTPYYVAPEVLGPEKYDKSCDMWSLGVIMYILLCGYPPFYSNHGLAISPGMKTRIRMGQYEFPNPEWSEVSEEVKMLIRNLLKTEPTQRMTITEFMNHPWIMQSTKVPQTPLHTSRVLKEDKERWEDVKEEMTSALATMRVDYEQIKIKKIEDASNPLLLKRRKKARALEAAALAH
Procedure, shortened: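 Activated MK2 (0.4 nM) was run with S/T3-Sox peptide and ATP, each at 10 μM (ATP at apparent KM), and Sox fluorescence was followed every 71 s for 2 h at room temperature. IC50 came from linear initial rates after no-enzyme subtraction, and apparent kinact/KI from kobs of single-exponential fits.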

MK2 [2] = target: T1, MK2 (Homo sapiens (Human), UniProt P49137); assay: MK2 cellular assay, total and phospho-Hsp27 (Serine 78) by MSD ELISA (Thp1); format: cell-based
T1 sequence (P49137 whole entry): as above
Description: MK2 Cellular Assay—Detection of Total and Phospho-Hsp27 (Serine 78) by MSD ELISA (Thp1)
Compounds of the invention were assayed in Thp-1 human acute monocytic leukemia cells to measure inhibition of MK2 activity. Thp-1 cells were grown in culture medium containing RPMI/10% FBS (fetal bovine serum)/0.05 mM 2-mercaptoethanol. 72 hours prior to the assay, 8×10^4 cells per well were plated in a 96 well flat bottom plate along with 10 ng/mL phorbol 12-myristate 13-acetate (PMA). Cells were cultured in an incubator at 37° C. until needed for the assay. Cell plate media was replaced with culture media just prior to assay while compound dilutions were being made.
Stock solutions of test compound, 1 mM in DMSO, were prepared. 0.9 μl of test compound was added to 300 μl cell media for a starting concentration of 3000 nM. […] Cell plate media was discarded, followed by addition of 100 μl of the compound containing media. The resulting preparation was incubated at 37° C. for 1 hour.
Test compound-containing cell assay media was removed and the cells were washed once with cell assay media. Cell assay media containing 50 ng/mL LPS (lipopolysaccharide) was added to the each well and incubated for 45 minutes. Following LPS incubation, the cells were washed once with PBS (phosphate-buffered saline) and lysed with 60 μl Cell Extraction Buffer (Invitrogen #FNN0011) plus protease and phosphatase inhibitors. The plate was then stored at −80° C. until further analysis.
The MULTI-SPOT Phospho(Ser78)/Total HSP27 ELISA Assay kit was purchased from Meso Scale […] (MSD; catalog #K15128D). […] The pre-coated MSD plate was blocked with 150 μL/well of 3% BSA in MSD wash buffer. The preparation was placed on a shaker at room temperature for an hour. While the ELISA plate was blocked, the cell assay plate stored at −80° C. was placed on a shaker at 4° C. for 1 hour to thaw.
The blocked MSD plate was washed on a plate washer, tapping out the last bit of wash solution, followed by addition of 30 μl of the lysate from the cell assay plate. The preparation was covered and incubated for 1 hour at room temperature. The lysate was removed, the plate was washed 3 times on a plate washer and the last bit of wash buffer was tapped out and replaced with 25 μl/well detection antibody (anti-total HSP27 conjugated with an electrochemiluminescent compound, MSD SULFO-TAG label, supplied in kit) made in 1% BSA/MSD wash buffer. The plate was incubated for 1 hour at room temperature on a shaker, followed by 3 washes. The last bit of wash buffer was tapped out. 150 μl/well 1×MSD read buffer was added (4× read buffer supplied with kit) and the plate was analyzed on the MSD SECTOR® Imager for analysis. The SECTOR® Imager measures intensity of emitted light to provide a quantitative measure of phosphorylated HSP27 (Ser78) and total HSP27 present in the sample. The relative percent phosphoprotein in a sample is calculated by dividing the Phospho-HSP27 signal intensity over the total HSP27 signal intensity measured in each well.

MK2 [3] = target: T1, MK2; conditions: percentage of modified protein after 60 minutes at room temperature, 10-fold excess of compound; MALDI (I-1 to I-50), magnetic bead MALDI (I-51 to I-129)
Description: Aliquots of the resulting mixture (6 μL each) were diluted with 0.2% trifluoroacetic acid (TFA, 10 μL) prior to micro C4 ZipTipping directly onto the MALDI target using sinapinic acid as the desorption matrix (10 mg/ml in 0.1% TFA:acetonitrile 50:50, v/v). The centroid mass of the target protein in the control sample was compared with the centroid mass of the target protein incubated with compound. A shift in the centroid mass of the treated protein compared to the untreated protein was divided by the molecular weight of the compound. This number corresponds to the percentage of modified protein (a measure of the proportion of total target protein covalently bound to the test compound) after one hour incubation.
3 μL of magnetic Ni-NTA beads were added to the 6 μL aliquots of sample, washed, eluted with 0.2% trifluoroacetic acid (TFA, 2 μL), and spotted directly onto the MALDI target using sinapinic acid as the desorption matrix (10 mg/ml in 0.1% TFA:acetonitrile 50:50, v/v). The centroid mass of the target protein in the control sample was compared with the centroid mass of the target protein incubated with compound. A shift in the centroid mass of the treated protein compared to the untreated protein was divided by the molecular weight of the compound. This number corresponds to the percentage of modified protein (a measure of the proportion of total target protein covalently bound to the test compound) after one hour incubation.

[4] = Thp-1 cells, 1 hour compound, 50 ng/mL LPS 45 minutes, p-HSP27 (Ser78)/total HSP27, read-out: pHSP27 signaling EC50
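Throughout, for Mass Modification: covalent binding read from centroid mass shift of compound-treated versus untreated intact MK2, shift divided by compound molecular weight, giving fraction of total protein bound.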

| EC50 (MK2 [2]) [nM] | Compound | IC50 [1] [nM] | Mass Modification (MK2 [3]) | EC50 (MK2 [2]; [4]) [nM] |
| --- | --- | --- | --- | --- |
| 101 to 500 | COCCOc1nc(F)cc(Nc2ccc3c(ccc4sc5c(c43)NC[C@@H](C)NC5=O)n2)n1 [I-44, (R)-3-((6-fluoro-2-(2-methoxyethoxy)pyrimidin-4-yl)amino)-10-methyl-9,10,11,12-tetrahydro-8H-[1,4]diazepino[5′,6′:4,5]thieno[3,2-f]quinolin-8-one] | < 100 | G (mass modification ≦30%) | – |
| > 1000 | COCCOc1cc(F)nc(Nc2ccc3c(ccc4sc5c(c43)NC[C@@H](C)NC5=O)n2)n1 [I-45, (R)-3-((4-fluoro-6-(2-methoxyethoxy)pyrimidin-2-yl)amino)-10-methyl-9,10,11,12-tetrahydro-8H-[1,4]diazepino[5′,6′:4,5]thieno[3,2-f]quinolin-8-one] | < 100 | G (mass modification ≦30%) | – |
| 101 to 500 | C[C@@H]1CNc2c(sc3ccc4nc(Nc5cc(F)nc(OC6CCCN(C)C6)n5)ccc4c23)C(=O)N1 (stereo partly drawn) [I-47, (10R)-3-((6-fluoro-2-((1-methylpiperidin-3-yl)oxy)pyrimidin-4-yl)amino)-10-methyl-9,10,11,12-tetrahydro-8H-[1,4]diazepino[5′,6′:4,5]thieno[3,2-f]quinolin-8-one] | < 100 | F (mass modification of 31-69%) | – |
| – | C[C@@H]1CNc2c(sc3ccc4nc(Oc5ccnc(Cl)n5)ccc4c23)C(=O)N1 [I-53, (R)-3-((2-chloropyrimidin-4-yl)oxy)-10-methyl-9,10,11,12-tetrahydro-8H-[1,4]diazepino[5′,6′:4,5]thieno[3,2-f]quinolin-8-one] | < 100 | F (mass modification of 31-69%) | 101 to 500 |
| – | C[C@@H]1CNc2c(sc3ccc4nc(Sc5cc(F)ncn5)ccc4c23)C(=O)N1 [I-54, (R)-3-((6-fluoropyrimidin-4-yl)thio)-10-methyl-9,10,11,12-tetrahydro-8H-[1,4]diazepino[5′,6′:4,5]thieno[3,2-f]quinolin-8-one] | < 100 | E (mass modification of ≧70%) | > 1000 |
| – | C[C@@H]1CNc2c(sc3ccc4nc(Oc5cncc(Cl)n5)ccc4c23)C(=O)N1 [I-55, (R)-3-((6-chloropyrazin-2-yl)oxy)-10-methyl-9,10,11,12-tetrahydro-8H-[1,4]diazepino[5′,6′:4,5]thieno[3,2-f]quinolin-8-one] | 101 to 500 | G (mass modification ≦30%) | > 1000 |
| – | C[C@@H]1CNc2c(sc3ccc4nc(Oc5cc(Cl)ncn5)ccc4c23)C(=O)N1 [I-56, (R)-3-((6-chloropyrimidin-4-yl)oxy)-10-methyl-9,0,11,12-tetrahydro-8H-[1,4]diazepino[5′,6′:4,5]thieno[3,2-f]quinolin-8-one] | < 100 | E (mass modification of ≧70%) | < 100 |
| – | COCc1nc(Cl)cc(Oc2ccc3c(ccc4sc5c(c43)NC[C@@H](C)NC5=O)n2)n1 [I-57, (R)-3-((6-chloro-2-(methoxymethyl)pyrimidin-4-yl)oxy)-10-methyl-9,10,11,12-tetrahydro-8H-[1,4]diazepino[5′,6′:4,5]thieno[3,2-f]quinolin-8-one] | < 100 | E (mass modification of ≧70%) | < 100 |
| – | Cc1nc(Cl)cc(Oc2ccc3c(ccc4sc5c(c43)NC[C@@H](C)NC5=O)n2)n1 [I-58, (R)-3-((6-chloro-2-methylpyrimidin-4-yl)oxy)-10-methyl-9,10,11,12-tetrahydro-8H-[1,4]diazepino[5′,6′:4,5]thieno[3,2-f]quinolin-8-one] | < 100 | E (mass modification of ≧70%) | < 100 |
| – | C[C@@H]1CNc2c(sc3ccc4nc(Nc5cc(Cl)nc(OC6CCCN(C)C6)n5)ccc4c23)C(=O)N1 (stereo partly drawn) [I-59, (10R)-3-((6-chloro-2-((1-methylpiperidin-3-yl)oxy)pyrimidin-4-yl)amino)-10-methyl-9,10,11,12-tetrahydro-8H-[1,4]diazepino[5′,6′:4,5]thieno[3,2-f]quinolin-8-one] | < 100 | E (mass modification of ≧70%) | 501 to 999 |
| – | C[C@@H]1CNc2c(sc3ccc4nc(Nc5cc(Cl)nc(O[C@@H]6CCN(C)C6)n5)ccc4c23)C(=O)N1 [I-60, (R)-3-((6-chloro-2-(((R)-1-methylpyrrolidin-3-yl)oxy)pyrimidin-4-yl)amino)-10-methyl-9,10,11,12-tetrahydro-H-[1,4]diazepino[5′,6′:4,5]thieno[3,2-f]quinolin-8-one] | < 100 | F (mass modification of 31-69%) | 101 to 500 |
| – | C[C@@H]1CNc2c(sc3ccc4nc(Nc5nc(Cl)cc(OCCN6CCN(C)CC6)n5)ccc4c23)C(=O)N1 [I-61, (R)-3-((4-chloro-6-(2-(4-methylpiperazin-1-yl)ethoxy)pyrimidin-2-yl)amino)-10-methyl-9,10,11,12-tetrahydro-8H-[1,4]diazepino[5′,6′:4,5]thieno[3,2-f]quinolin-8-one] | < 100 | G (mass modification ≦30%) | > 1000 |
| – | C[C@@H]1CNc2c(sc3ccc4nc(Oc5nc(Cl)nc(N6CCCC6)n5)ccc4c23)C(=O)N1 [I-62, (R)-3-((4-chloro-6-(pyrrolidin-1-yl)-1,3,5-triazin-2-yl)oxy)-10-methyl-9,10,11,12-tetrahydro-8H-[1,4]diazepino[5′,6′:4,5]thieno[3,2-f]quinolin-8-one] | < 100 | E (mass modification of ≧70%) | 101 to 500 |
| – | C[C@@H]1CNc2c(sc3ccc4nc(Oc5nc(Cl)nc(N6CCOCC6)n5)ccc4c23)C(=O)N1 [I-63, (R)-3-((4-chloro-6-morpholino-1,3,5-triazin-2-yl)oxy)-10-methyl-9,10,11,12-tetrahydro-8H-[1,4]diazepino[5′,6′:4,5]thieno[3,2-f]quinolin-8-one] | < 100 | E (mass modification of ≧70%) | < 100 |
| – | C[C@@H]1CNc2c(sc3ccc4nc(Oc5nc(Cl)nc(N6CCCCC6)n5)ccc4c23)C(=O)N1 [I-64, (R)-3-((4-chloro-6-(piperidin-1-yl)-1,3,5-triazin-2-yl)oxy)-10-methyl-9,10,11,12-tetrahydro-8H-[1,4]diazepino[5′,6′:4,5]thieno[3,2-f]quinolin-8-one] | < 100 | E (mass modification of ≧70%) | > 1000 |
| – | Cc1nc(F)cc(Oc2ccc3c(ccc4sc5c(c43)NC[C@@H](C)NC5=O)n2)n1 [I-65, (R)-3-((6-fluoro-2-methylpyrimidin-4-yl)oxy)-10-methyl-9,10,11,12-tetrahydro-8H-[1,4]diazepino[5′,6′:4,5]thieno[3,2-f]quinolin-8-one] | < 100 | E (mass modification of ≧70%) | 101 to 500 |
| – | C[C@@H]1CNc2c(sc3ccc4nc(Nc5cc(Cl)nc(OCCN6CCN(C)CC6)n5)ccc4c23)C(=O)N1 [I-66, (R)-3-((6-chloro-2-(2-(4-methylpiperazin-1-yl)ethoxy)pyrimidin-4-yl)amino)-10-methyl-9,10,11,12-tetrahydro-8H-[1,4]diazepino[5′,6′:4,5]thieno[3,2-f]quinolin-8-one] | < 100 | F (mass modification of 31-69%) | 101 to 500 |
